This test relates to gray mold fungus (Botrytis cinerea). The experiment in a line: Cucumber leaf disk preventive test against gray mold fungus (Test Examples 1 and 2, Reference Examples). Type of test: in vivo. As to conditions: 15° C., four days. On the procedure:
To a SUS beaker are added 30 parts of the present compound (racemate), 5 parts of Soprophor FLK (polyoxyethylene tristyrylphenyl ether phosphate, produced by Rhodia Nicca Ltd.), 65 parts of ion-exchange water and 150 parts of glass beads (1.0 mm diameter). The mixture is subjected to grinding at a velocity of 1000 rpm with cooling to 10° C., and thereafter the glass beads are separated, so as to obtain a flowable formulation comprising the present compound (racemate).
True leaf of cucumber is punched out with cork borer to 13 mm in diameter to prepare a leaf disk. In 24 well microwell plate that is dispensed with 1 ml 0.8% water agar, the leaf disk is placed such that the upper side of the leaf is in an upward direction. Thereto is added 20 micro liter a testing solution prepared by mixing the flowable formulation of the present compound (racemate) prepared by the above procedure and a commercial liquid formulation of validamycin or a commercial wettable powders of polyoxins to a predetermined concentration to treat the leaf disk.
After confirming that the testing medical solution is dried, conidium of gray mold fungus (Botrytis cinerea) is suspended into potato dextrose broth (DIFCO) in a density of about 10^5 conidium/mL and is then subjected to a spray inoculation. After leaving to stand the leaf disk in a growth chamber set up at 15° C. for four days, an onset area on the leaf is measured and then calculated an onset area rate (hereinafter, referred to as an onset area rate of treated group).
The same operation is carried out with 20 micro liter water instead of 20 micro liter a testing medicine solution to calculate an onset area rate (hereinafter, referred to an onset area rate of non-treated group).
A preventive value is calculated from the above onset area rate of treated group and the onset area rate of non-treated group by the following equation: Preventive value (%)=100×(A−B)/A
A: an onset area rate of treated group
B: an onset area rate of non-treated group
The same operations as described in Test Example 1 are carried out with kasugamycin or streptomycin instead of validamycin or polyoxins, so as to calculate respective preventive values.
Also for comparison, the same operations as described in Test Example 1 are carried out with the exception that the testing medicine solution is substituted with a predetermined concentration of either a flowable formulation of the present amide compound or a commercial wettable powder of kasugamycin or streptomycin, so as to calculate respective preventive values.
For comparison, the same operations as described in Test Example 1 are carried out with the exception that the testing medicine solution is substituted with a predetermined concentration of a solution of a wettable powder of validamycin or polyoxins, so as to calculate a preventive value.

Where [1] appears, read: antibiotic compound alone 0.5 ppm.
The mark [2] stands for this setting: antibiotic compound alone 5.0 ppm.

In the case of `OCC1=C[C@H](N[C@H]2C[C@H](CO)[C@@H](O[C@@H]3O[C@H](CO)[C@@H](O)[C@H](O)[C@H]3O)[C@H](O)[C@H]2O)[C@H](O)[C@@H](O)[C@@H]1O` [validamycin], the “preventive value (%)” value is, setting by setting: under setting [1], 5%; under setting [2], 10%.
The corresponding values for polyoxins are 11% and 15%.
In the same order, the values of `[H]/N=C(/N)N[C@H]1[C@H](O)[C@@H](O)[C@H](O[C@@H]2O[C@@H](C)[C@](O)(C=O)[C@H]2O[C@@H]2O[C@@H](CO)[C@H](O)[C@@H](O)[C@@H]2NC)[C@@H](N/C(N)=N\[H])[C@@H]1O` [streptomycin] are 0% and 10%.
The corresponding values for `C[C@H]1O[C@H](O[C@H]2[C@H](O)[C@@H](O)[C@@H](O)[C@H](O)[C@@H]2O)[C@@H](N)C[C@@H]1NC(=N)C(=O)O` [kasugamycin] are 0% and 10%.

For the origin of these results see patent US10051860B2, “Plant disease controlling composition and method for controlling plant disease” (SUMITOMO CHEMICAL COMPANY, LIMITED, priority 2010, dated 2018).
